Experiment [1] deals with T1, Carbonic anhydrase 2 (Homo sapiens, UniProt P00918). Briefly: Inhibition of human CA2 by 4-nitrophenyl acetate hydrolysis.
Experiment [2] deals with T1, Carbonic anhydrase 2. Briefly: Binding affinity to human CA2 at pH 7.4 by ThermoFluor assay.
Experiment [3] concerns the target T1, Carbonic anhydrase 2.
Description: Inhibition of human CA2 by carbon dioxide hydration
The target of experiment [4] is T1, Carbonic anhydrase 2. The experiment in a line: Binding affinity to human CA2 in presence of sodium sulfate and ANS at pH 7.5 by ThermoFluor assay. In general terms: In DSF a fluorescence change marks the thermal transition of the protein.

Molecules are shown by their SMILES.

By Ki is commonly meant the equilibrium dissociation constant of an inhibitor or competing ligand from its target. A higher Ki goes with a looser hold on the target. One may read the Kd as the equilibrium constant for the complex coming apart. Regarding `COc1ccc(NS(N)(=O)=O)cc1`, the Ki turned out to be 18800 nM at Carbonic anhydrase 2 [1] and 14400 nM on Carbonic anhydrase 2 [3]. Besides, the Kd stood at 5000 nM at Carbonic anhydrase 2 [2] and 2650 nM on Carbonic anhydrase 2 [4].
As to `NS(=O)(=O)Nc1ccc([N+](=O)[O-])cc1`, the Ki amounted to 1740 nM at Carbonic anhydrase 2 [1] and 892 nM at Carbonic anhydrase 2 [3]. Also, the dissociation constant (Kd) on Carbonic anhydrase 2 [2] amounted to 1500 nM; on Carbonic anhydrase 2 [4] it was 1000 nM.

The values above are taken from ChEMBL document CHEMBL1148633, “Inhibition of carbonic anhydrase-II by sulfamate and sulfamide groups: an investigation involving direct thermodynamic binding measurements” (J Med Chem, 2006).
